According to PubChem BioAssay AID330 (DTP/NCI, 2004):
Several values for one entry are separate records, joined by “and”; a condition that tells them apart may be missing. Equal entries are not always repeated. Toxic doses and inconclusive results are not listed.

Tested on: P388 leukemia ip, CD2F1 mice, survival T/C
Assay: NCI In Vivo Anticancer Drug Screen. Data for tumor model P388 Leukemia (intraperitoneal) in CD2F1 (CDF1) mice
Conditions: endpoint: median survival time, higher = longer survival
Method in brief: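 Mice carrying the transplanted tumor received test compound or vehicle. Survival was recorded in each group, and the value is the treated-group measurement divided by that of the vehicle-treated control group.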

[1] = dose: 60.0 mg/kg/injection, schedule: Q01DX005 (ip), vehicle: saline with Tween-80
[2] = dose: 120.0 mg/kg/injection, schedule: Q01DX005 (ip), vehicle: saline with Tween-80
[3] = dose: 240.0 mg/kg/injection, schedule: Q01DX005 (ip), vehicle: saline with Tween-80
[4] = dose: 50.0 mg/kg/injection, schedule: Q01DX005 (ip), vehicle: saline with Tween-80
[5] = dose: 100.0 mg/kg/injection, schedule: Q01DX005 (ip), vehicle: saline with Tween-80
[6] = dose: 12.5 mg/kg/injection, schedule: Q01DX005 (ip), vehicle: Klucel (hydroxypropylcellulose) (HPC)
[7] = dose: 25.0 mg/kg/injection, schedule: Q01DX009 (ip), vehicle: Klucel (hydroxypropylcellulose) (HPC)
[8] = dose: 100.0 mg/kg/injection, schedule: Q04DX002 (ip), vehicle: Klucel (hydroxypropylcellulose) (HPC)
[9] = dose: 200.0 mg/kg/injection, schedule: Q04DX002 (ip), vehicle: Klucel (hydroxypropylcellulose) (HPC)
[10] = dose: 400.0 mg/kg/injection, schedule: Q04DX002 (ip), vehicle: Klucel (hydroxypropylcellulose) (HPC)
[11] = dose: 25.0 mg/kg/injection, schedule: Q01DX005 (ip), vehicle: Klucel (hydroxypropylcellulose) (HPC)
[12] = dose: 50.0 mg/kg/injection, schedule: Q01DX005 (ip), vehicle: Klucel (hydroxypropylcellulose) (HPC)
[13] = dose: 100.0 mg/kg/injection, schedule: Q01DX005 (ip), vehicle: Klucel (hydroxypropylcellulose) (HPC)
[14] = dose: 200.0 mg/kg/injection, schedule: Q01DX005 (ip), vehicle: Klucel (hydroxypropylcellulose) (HPC)

COc1ccc(C2COc3c(ccc(O)c3O)C2)cc1 (stereo not drawn)
T/C [1]: 104 % of control
T/C [2]: 96 % of control
T/C [3]: 99 % of control

CCOC(=O)c1cnc2cc(C)cc(C)c2c1Nc1ccc2c(c1)OCO2
T/C (dose: 60.0 mg/kg/injection, schedule: Q01DX005 (ip), vehicle: Klucel + Tween-80): 100 % of control
T/C (dose: 120.0 mg/kg/injection, schedule: Q01DX005 (ip), vehicle: Klucel + Tween-80): 92 % of control
T/C (dose: 240.0 mg/kg/injection, schedule: Q01DX005 (ip), vehicle: Klucel + Tween-80): 87 % of control

CO/N=C/c1ccc[n+](C)c1
T/C [4]: 105 % of control
T/C [5]: 105 % of control

Cn1ccc(=O)n(C)c1=O
T/C (dose: 100.0 mg/kg/injection, schedule: Q04DX002 (ip), vehicle: saline): 107 % of control
T/C (dose: 200.0 mg/kg/injection, schedule: Q04DX002 (ip), vehicle: saline): 107 % of control
T/C (dose: 400.0 mg/kg/injection, schedule: Q04DX002 (ip), vehicle: saline): 109 % of control

CC(=O)OC1OC(/C=N\N(C)C)C(OCc2ccccc2)C(OCc2ccccc2)C1OC(C)=O (stereo not drawn)
T/C (dose: 3.12 mg/kg/injection, schedule: Q01DX005 (ip), vehicle: Klucel (hydroxypropylcellulose) (HPC)): 95 % of control
T/C (dose: 6.25 mg/kg/injection, schedule: Q01DX005 (ip), vehicle: Klucel (hydroxypropylcellulose) (HPC)): 97 % of control
T/C (dose: 6.25 mg/kg/injection, schedule: Q01DX009 (ip), vehicle: Klucel (hydroxypropylcellulose) (HPC)): 104 % of control
T/C [6]: 94 % of control
T/C (dose: 12.5 mg/kg/injection, schedule: Q01DX009 (ip), vehicle: Klucel (hydroxypropylcellulose) (HPC)): 92 % of control
T/C [7]: 92 % of control
T/C (dose: 25.0 mg/kg/injection, schedule: Q01DX009 (ip), vehicle: other): 92 % of control
T/C (dose: 50.0 mg/kg/injection, schedule: Q01DX009 (ip), vehicle: other): 88 % of control
T/C (dose: 100.0 mg/kg/injection, schedule: Q01DX009 (ip), vehicle: other): 94 % of control
T/C (dose: 200.0 mg/kg/injection, schedule: Q01DX009 (ip), vehicle: other): 89 % of control

O=Cc1cc(/C=N/Nc2ccccc2C(=O)O)nc2[nH]c(=O)ccc12
T/C [8]: 107 % of control
T/C [9]: 102 % of control
T/C [10]: 101 % of control

C#CCC(C(C)=O)C(C)=O.[C-]#[O+].[C-]#[O+].[C-]#[O+].[C-]#[O+].[C-]#[O+].[C-]#[O+].[Co].[Co]
T/C [6]: 108 % of control
T/C [11]: 102 % of control
T/C [12]: 108 % of control and 95 % of control

Cc1cc(Cl)ccc1NC(=O)Oc1ccc(C#N)cc1
T/C [1]: 90 % of control
T/C [2]: 90 % of control
T/C [3]: 90 % of control

O=C(Nc1cccc([N+](=O)[O-])c1)OCC#CCCl
T/C (dose: 50.0 mg/kg/injection, schedule: Q01DX005 (ip), vehicle: saline + Tween-80 + alcohol): 102 % of control
T/C (dose: 100.0 mg/kg/injection, schedule: Q01DX005 (ip), vehicle: saline + Tween-80 + alcohol): 101 % of control
T/C (dose: 200.0 mg/kg/injection, schedule: Q01DX005 (ip), vehicle: saline + Tween-80 + alcohol): 100 % of control

C/C(=N\NC(=S)N1CCC(c2ccccc2)CC1)c1nccnc1C
T/C [4]: 100 % of control
T/C [5]: 102 % of control
T/C (dose: 200.0 mg/kg/injection, schedule: Q01DX005 (ip), vehicle: saline with Tween-80): 100 % of control

CN(C)CCNc1ccc(NCCNCCO)c2c1C(=O)c1ccccc1C2=O
T/C (dose: 10.0 mg/kg/injection, schedule: Q04DX002 (ip), vehicle: saline): 151 % of control
T/C (dose: 20.0 mg/kg/injection, schedule: Q04DX002 (ip), vehicle: saline): 173 % of control
T/C (dose: 40.0 mg/kg/injection, schedule: Q04DX002 (ip), vehicle: saline): 192 % of control
T/C (dose: 80.0 mg/kg/injection, schedule: Q04DX002 (ip), vehicle: saline): 192 % of control

CC(=O)CC(C)c1ccc(C(C)CC(C)=O)o1 (stereo not drawn)
T/C [1]: 104 % of control
T/C [2]: 106 % of control
T/C [3]: 104 % of control

C=C1CCOC1=O
T/C (dose: 50.0 mg/kg/injection, schedule: Q04DX002 (ip), vehicle: saline with Tween-80): 97 % of control
T/C (dose: 100.0 mg/kg/injection, schedule: Q04DX002 (ip), vehicle: saline with Tween-80): 105 % of control
T/C (dose: 200.0 mg/kg/injection, schedule: Q04DX002 (ip), vehicle: saline with Tween-80): 105 % of control

O=C1CS(=O)(=O)C(c2cccc(F)c2)N1N1C(=O)CS(=O)(=O)C1c1cccc(F)c1 (stereo not drawn)
T/C [1]: 92 % of control
T/C [2]: 95 % of control
T/C [3]: 94 % of control

CN(CCC#N)c1ccc(/C=C(\C#N)c2cccc(C(F)(F)F)c2)cc1
T/C [12]: 105 % of control
T/C [13]: 90 % of control
T/C [14]: 96 % of control

COc1ccc(CC(CO)NC(=O)c2ccccc2)cc1 (stereo not drawn)
T/C [8]: 101 % of control
T/C [9]: 108 % of control
T/C [10]: 94 % of control

COc1cc2c(cc1OC)C(CO)C1c3cc4c(cc3CCN1C2)OCO4 (stereo not drawn)
T/C (dose: 50.0 mg/kg/injection, schedule: Q04DX003 (ip), vehicle: distilled water + Tween-80): 98 % of control
T/C (dose: 100.0 mg/kg/injection, schedule: Q04DX003 (ip), vehicle: distilled water + Tween-80): 98 % of control
T/C (dose: 200.0 mg/kg/injection, schedule: Q04DX003 (ip), vehicle: distilled water + Tween-80): 96 % of control
T/C (dose: 400.0 mg/kg/injection, schedule: Q04DX003 (ip), vehicle: distilled water + Tween-80): 96 % of control

CS/C(=N\S(=O)(=O)c1ccccc1)NNC(=O)c1c(-c2c(Cl)cccc2Cl)noc1C
T/C [1]: 100 % of control
T/C [2]: 100 % of control
T/C [3]: 91 % of control

O=c1cc[nH]c2c1ccc1[nH]ccc(=O)c12
T/C (dose: 60.0 mg/kg/injection, schedule: Q01DX005 (ip), vehicle: Klucel (hydroxypropylcellulose) (HPC)): 108 % of control
T/C (dose: 120.0 mg/kg/injection, schedule: Q01DX005 (ip), vehicle: Klucel (hydroxypropylcellulose) (HPC)): 99 % of control
T/C (dose: 240.0 mg/kg/injection, schedule: Q01DX005 (ip), vehicle: Klucel (hydroxypropylcellulose) (HPC)): 99 % of control

c1cc2c3c(cccc3c1)-c1nc3ccccc3nc1-2
T/C [7]: 101 % of control
T/C (dose: 50.0 mg/kg/injection, schedule: Q01DX009 (ip), vehicle: Klucel (hydroxypropylcellulose) (HPC)): 100 % of control
T/C (dose: 100.0 mg/kg/injection, schedule: Q01DX009 (ip), vehicle: Klucel (hydroxypropylcellulose) (HPC)): 92 % of control

CCOC(=O)C1CC1C1=C(C)c2cc3[n-]c(cc4nc(cc5[n-]c(cc1n2)c(C)c5CCC(=O)OC)C(CCC(=O)OC)=C4C)c(C)c3C1CC1C(=O)OCC.[Cl-].[Fe+3] (stereo not drawn)
T/C [12]: 102 % of control
T/C [13]: 86 % of control
T/C [14]: 100 % of control

ClC(Cl)Cl
T/C (dose: 0.25 % in 0.5 ml injection vol, schedule: Q01DX009 (ip), vehicle: water): 100 % of control
T/C (dose: 0.5 % in 0.5 ml injection vol, schedule: Q01DX009 (ip), vehicle: water): 96 % of control
T/C (dose: 1.0 % in 0.5 ml injection vol, schedule: Q01DX009 (ip), vehicle: water): 100 % of control

CC(=O)OC1C(Br)C2CC1C1(Cl)C(=O)C(Cl)=C(Cl)C(=O)C21Cl (stereo not drawn)
T/C (dose: 50.0 mg/kg/injection, schedule: Q01DX009 (ip), vehicle: saline): 99 % of control
T/C (dose: 100.0 mg/kg/injection, schedule: Q01DX009 (ip), vehicle: saline): 101 % of control
T/C (dose: 200.0 mg/kg/injection, schedule: Q01DX009 (ip), vehicle: saline): 99 % of control

O=c1c(O)c(-c2ccccc2)c1=O
T/C [11]: 98 % of control
T/C [12]: 100 % of control
T/C [13]: 98 % of control

Cc1c2ccncc2c(CO)c2c3ccccc3n(C)c12
T/C (dose: 5.0 mg/kg/injection, schedule: Q01DX005 (ip), vehicle: saline): 109 % of control
T/C (dose: 10.0 mg/kg/injection, schedule: Q01DX005 (ip), vehicle: saline): 97 % of control
T/C (dose: 20.0 mg/kg/injection, schedule: Q01DX005 (ip), vehicle: saline): 97 % of control

NNc1ccc(-n2ncc(C(N)=O)c2N)nn1
T/C (dose: 50.0 mg/kg/injection, schedule: Q01DX005 (ip), vehicle: other): 104 % of control
T/C (dose: 100.0 mg/kg/injection, schedule: Q01DX005 (ip), vehicle: other): 107 % of control

CC1CC(=O)NC(N)=N1 (stereo not drawn)
T/C (dose: 50.0 mg/kg/injection, schedule: Q01DX005 (ip), vehicle: saline): 98 % of control
T/C (dose: 100.0 mg/kg/injection, schedule: Q01DX005 (ip), vehicle: saline): 108 % of control
T/C (dose: 200.0 mg/kg/injection, schedule: Q01DX005 (ip), vehicle: saline): 104 % of control
